Tests used:
Type in all cases: biochemical
CDK4 = CDK4 (Homo sapiens (Human), UniProt P11802); experiment: In vitro kinase test (LANCE Ultra), CDK4
From the text: (§1) Recombinant CDK1/CCNB1 and CDK9/CCNT were purchased from BPS; CDK2/CCNA1, CDK4/CCND1 and CDK6/CCND1 were purchased from Invitrogen; CDK4/CycD3 and CDK6/CycD3 were purchased from Carna. Adenosine triphosphate (ATP) was purchased from Life tech. Substrate Ulight-4EBP1 and the corresponding detection antibody were purchased from Perkinelmer. The detection system was Perkinelmer's LANCE Ultra system.
(§2) In the kinase test, a compound to be tested was 1:3 diluted for 8 gradient points, added into a reaction plate, and then added an appropriate amount of recoinbinase. A buffer [50 mM HEPES […], 10 mM MgCl2, 3 mM MnCl2, 1 mM EGTA, 0.01% Tween-20, 1 mM TCEP] containing ATP/Ulight-4EBP1 premix with predetermined concentration was subsequently added, and the kinase reaction was started at room temperature. A test solution pre-mixed with 10 mM EDTA and detection antibody was added after a suitable reaction time, and then the fluorescence value was read on Tecan infinite pro after reacting for 1 hour at room temperature. The IC50 was calculated using a four-factor model fitting in a XLfit software.

CDK6 = CDK6 (Homo sapiens (Human), UniProt Q00534); experiment: In vitro kinase test (LANCE Ultra), CDK6
Sequence of CDK6 (Q00534 whole entry, looked up): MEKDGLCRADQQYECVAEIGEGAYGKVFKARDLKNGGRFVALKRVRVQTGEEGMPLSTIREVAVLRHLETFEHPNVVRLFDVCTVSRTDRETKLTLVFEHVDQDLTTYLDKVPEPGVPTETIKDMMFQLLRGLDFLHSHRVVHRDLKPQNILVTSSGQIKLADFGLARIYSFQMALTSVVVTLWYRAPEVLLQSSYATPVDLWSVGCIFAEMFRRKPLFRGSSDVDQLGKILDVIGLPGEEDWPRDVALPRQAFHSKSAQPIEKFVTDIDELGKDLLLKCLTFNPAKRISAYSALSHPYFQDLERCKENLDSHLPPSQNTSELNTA
Sequence of CDK6 (P24385 whole entry partner, looked up): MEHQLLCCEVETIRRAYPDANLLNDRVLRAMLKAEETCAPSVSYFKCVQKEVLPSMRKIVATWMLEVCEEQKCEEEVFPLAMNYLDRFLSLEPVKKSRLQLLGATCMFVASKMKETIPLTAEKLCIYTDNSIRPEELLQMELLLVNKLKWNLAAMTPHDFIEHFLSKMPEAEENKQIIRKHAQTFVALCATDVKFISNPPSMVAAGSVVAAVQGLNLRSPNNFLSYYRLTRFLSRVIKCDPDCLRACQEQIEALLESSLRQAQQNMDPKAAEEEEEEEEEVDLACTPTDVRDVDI
From the text: as §1, §2

CDK2 = CDK2 (Homo sapiens (Human), UniProt P24941); experiment: In vitro kinase test (LANCE Ultra), CDK2
From the text: as §1, §2

CDK1 = CDK1 (Homo sapiens (Human), UniProt P06493); experiment: In vitro kinase test (LANCE Ultra), CDK1
Sequence of CDK1 (P06493 whole entry): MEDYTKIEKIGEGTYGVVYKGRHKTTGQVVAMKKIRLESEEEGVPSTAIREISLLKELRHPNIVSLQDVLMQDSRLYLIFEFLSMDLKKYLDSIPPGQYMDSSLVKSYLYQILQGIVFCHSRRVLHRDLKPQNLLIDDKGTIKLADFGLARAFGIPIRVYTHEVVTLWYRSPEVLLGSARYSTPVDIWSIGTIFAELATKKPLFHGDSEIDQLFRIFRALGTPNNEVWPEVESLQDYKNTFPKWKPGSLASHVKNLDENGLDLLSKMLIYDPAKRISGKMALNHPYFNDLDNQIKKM
Sequence of CDK1 (P14635 whole entry partner): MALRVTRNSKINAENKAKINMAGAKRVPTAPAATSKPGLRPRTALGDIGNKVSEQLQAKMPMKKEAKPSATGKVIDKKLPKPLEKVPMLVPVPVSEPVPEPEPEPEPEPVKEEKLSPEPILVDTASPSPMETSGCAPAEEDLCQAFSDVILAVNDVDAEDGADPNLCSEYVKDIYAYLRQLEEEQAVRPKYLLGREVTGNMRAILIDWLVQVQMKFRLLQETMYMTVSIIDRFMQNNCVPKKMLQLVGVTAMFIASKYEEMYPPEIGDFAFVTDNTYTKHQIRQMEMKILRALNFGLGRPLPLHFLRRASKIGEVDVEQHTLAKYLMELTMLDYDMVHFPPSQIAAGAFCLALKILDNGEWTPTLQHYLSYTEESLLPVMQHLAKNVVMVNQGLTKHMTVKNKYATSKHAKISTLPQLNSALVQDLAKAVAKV
From the text: as §1, §2

Sequence of CDK4 (P11802 whole entry, looked up): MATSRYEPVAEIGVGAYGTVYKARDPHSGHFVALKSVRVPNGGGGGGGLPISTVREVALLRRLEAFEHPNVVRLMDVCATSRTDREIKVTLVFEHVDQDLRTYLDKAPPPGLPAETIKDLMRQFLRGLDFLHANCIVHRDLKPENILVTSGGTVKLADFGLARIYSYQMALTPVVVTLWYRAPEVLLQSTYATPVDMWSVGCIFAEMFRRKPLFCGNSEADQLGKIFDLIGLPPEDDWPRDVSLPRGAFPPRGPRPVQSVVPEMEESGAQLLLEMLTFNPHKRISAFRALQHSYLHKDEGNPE
Sequence of CDK4 (P24385 whole entry partner, looked up): as the sequence (P24385 whole entry partner, looked up) above

| Structure (SMILES) | IC50 (CDK4) [nM] | IC50 (CDK6) [nM] | IC50 (CDK1) [nM] | further results |
| --- | --- | --- | --- | --- |
| CCc1nc2c(n1C(C)C)-c1nc(Nc3ccc(CN4CCN(CC)CC4)cn3)ncc1CC2 [Compound P-3] | 6 | 59 | 912 | IC50 (CDK2): 1150 nM |
| Cc1nc2sc3cnc(Nc4ccc(N5CCNCC5)cn4)nc3c2n1C(C)C [Compound P-65] | 1070 | > 3000 | – | – |
| CC(C)c1c2c(nn1C)Cc1cnc(Nc3ccc(N4CCNCC4)cn3)nc1-2 [Compound P-8] | 10 | 161 | > 10000 | IC50 (CDK2): 8250 nM |
| c1cc(Nc2ncc3c(n2)-c2c(cnn2C2CCOC2)CC3)ncc1N1CCNCC1 (stereo not shown) [Compound P-37] | 41 | 362 | – | – |
| CC(=O)C1(C)Cc2cnc(Nc3ccc(N4CCNCC4)cn3)nc2-c2c1ncn2C(C)C (stereo not shown) [Compound P-63] | 56 | 160 | – | – |
| CC(C)c1c2c(nn1C)CC(C)(C)c1cnc(Nc3ccc(N4CCNCC4)cn3)nc1-2 [Compound P-44] | 173 | 415 | – | – |
| CCN1CCN(Cc2ccc(Nc3ncc4c(n3)-c3c(cnn3C(C)C)CC4)nc2)CC1 [Compound P-10] | 16 | 132 | – | – |
| CC(C)c1c2c(nn1C)CC1(CC1)c1cnc(Nc3ccc(N4CCNCC4)cn3)nc1-2 [Compound P-56] | 103 | 831 | – | – |
| CCn1nc2c(c1C(C)C)-c1nc(Nc3ccc(N4CCNCC4)cn3)ncc1OC2 [Compound P-49] | 7 | 70 | – | – |
| CC(C)n1ncc2c1-c1nc(Nc3ccc(N4CCNCC4)cn3)ncc1CC2(C)C [Compound P-51] | 42 | 117 | – | – |
| CCN1CCN(c2ccc(Nc3ncc4c(n3)-c3c(nn(C)c3C(C)C)C4)nc2)CC1 [Compound P-7] | 6 | 42 | 8530 | IC50 (CDK2): 9850 nM |
| CC(C)c1c2c(nn1C)C(C)(C)c1cnc(Nc3ccc(N4CCNCC4)cn3)nc1-2 [Compound P-42] | 17 | 222 | 4320 | IC50 (CDK2): 1290 nM |
| CC(C)c1c2c(nn1C)C(C)(C(C)O)Cc1cnc(Nc3ccc(N4CCNCC4)cn3)nc1-2 (stereo not shown) [Compound P-60, 1-(9-isopropyl-6,8-dimethyl-2-(5-(piperazin-1-yl)pyridin-2-ylamino)-6,8-dihydro-5H-pyrazolo[3,4-H]quinazolin-6-yl)ethanol] | 160 | 762 | – | – |
| Cc1c2c(nn1C)CCc1cnc(Nc3ccc(N4CCN(C)CC4)cc3)nc1-2 [Compound D1, reference compound] | – | – | – | inhibitory activity against CDK4 (in words) (CDK4): strong inhibitory activity; inhibitory activity against CDK6 (in words) (CDK6): strong inhibitory activity; inhibitory activity against CDK2 (in words) (CDK2): strong inhibitory activity; inhibitory activity against CDK1 (in words) (CDK1): strong inhibitory activity |
| CCN1CCN(Cc2ccc(Nc3ncc4c(n3)-c3c(nn(CC)c3C(C)C)CC4)nc2)CC1 [Compound P-2] | 4 | 38 | 427 | – |
| CC(C)c1c2c(nn1C)CCc1cnc(Nc3ccc(N4CCNCC4)cn3)nc1-2 [Compound P-14, 9-isopropyl-8-methyl-N-(5-(piperazin-1-yl)pyridin-2-yl)-6,8-dihydro-5H-pyrazolo[3,4-H]quinazolin-2-amine] | 5 | 20 | 1020 | IC50 (CDK2): 523 nM |
| Cc1nc2c(n1CC1CC1)-c1nc(Nc3ccc(N4CCNCC4)cn3)ncc1C2 [Compound P-28] | 41 | 121 | – | – |
| CC(C)c1c2c3nc(Nc4ccc(N5CCNCC5)cn4)ncc3n(C)c2nn1C [Compound P-58] | 10 | 263 | > 10000 | IC50 (CDK2): 5980 nM |
| CC(C)c1c2c(nn1C)C(C)c1cnc(Nc3ccc(N4CCNCC4)cn3)nc1-2 (stereo not shown) [Compound P-47] | 5 | 46 | 706 | IC50 (CDK2): 510 nM |

| Structure (SMILES) | IC50 (CDK4) [nM] | IC50 (CDK6) [nM] | IC50 (CDK1) [nM] | further results |
| --- | --- | --- | --- | --- |
| CCc1nc2c(n1C(C)C)-c1nc(Nc3ccc(CN4CCN(CC)CC4)cn3)ncc1C2 [Compound P-5] | 22 | 256 | 5310 | – |
| c1cc(Nc2ncc3c(n2)-c2nn(C4CCCC4)cc2CC3)ncc1N1CCNCC1 [Compound P-36] | 138 | 714 | – | – |
| CC(C)c1[nH]nc2c1-c1nc(Nc3ccc(N4CCNCC4)cn3)ncc1CC2 [Compound P-29, 9-isopropyl-N-(5-(piperazin-1-yl)pyridin-2-yl)-6,8-dihydro-5H-pyrazolo[3,4-H]quinazolin-2-amine] | 7 | 17 | > 1000 | IC50 (CDK2): 457 nM |
| Cc1c2c(nn1C)CCc1cnc(Nc3ccc(N4CCN(C)CC4)cn3)nc1-2 [Compound P-66] | 23 | 63 | 926 | IC50 (CDK2): 674 nM |
| CC(C)c1c2c(nn1C)C1(CC1)c1cnc(Nc3ccc(N4CCNCC4)cn3)nc1-2 [Compound P-57] | 3 | 58 | 942 | IC50 (CDK2): 803 nM |
| CCN1CCN(Cc2ccc(Nc3ncc4c(n3)-c3c(nn(CC)c3C(C)C)C(C)(C)C4)nc2)CC1 [Compound P-50] | 6 | 40 | – | – |
| CCc1nc2c(n1C(C)C)-c1nc(Nc3ccc(N4CCNCC4)cn3)ncc1C2 [Compound P-22] | 20 | 43 | – | – |
| CCN1CCN(Cc2ccc(Nc3ncc4c(n3)-c3c(nc(C)n3C(C)C)CC4)nc2)CC1 [Compound P-41] | 5 | 44 | – | – |
| CC(C)c1c2c(nn1C(F)F)Cc1cnc(Nc3ccc(N4CCNCC4)cn3)nc1-2 [Compound P-27] | 6 | 8 | – | – |
| CCN1CCN(Cc2ccc(Nc3ncc4c(n3)-c3c(nn(CC)c3C(C)C)C4)nc2)CC1 [Compound P-45] | 37 | 451 | – | – |
| CC(C)n1nc(C#N)c2c1-c1nc(Nc3ccc(N4CCNCC4)cn3)ncc1CC2 [Compound P-52, 1-isopropyl-8-(5-(piperazin-1-yl)pyridin-2-ylamino)-4,5-dihydro-1H-pyrazolo[4,3-H]quinazolin-3-carbonitrile] | 6 | 33 | – | – |
| Cc1nc2c(n1C1CC1)-c1nc(Nc3ccc(N4CCNCC4)cn3)ncc1C2 [Compound P-11] | 43 | 165 | – | – |
| CCN1CCN(c2ccc(Nc3ncc4c(n3)-c3c(cnn3C(C)C)CC4)nc2)CC1 [Compound P-12] | 8 | 36 | > 10000 | – |
| CC(=O)C1(C)Cc2cnc(Nc3ccc(N4CCNCC4)cn3)nc2-c2c1nn(C)c2C(C)C (stereo not shown) [Compound P-55] | 128 | 523 | – | – |
| CC(C)n1ncc2c1-c1nc(Nc3ccc(N4CCNCC4)cn3)ncc1CC2 [Compound P-25, 1-isopropyl-N-(5-(piperazin-1-yl)pyridin-2-yl)-4,5-dihydro-1H-pyrazolo[4,3H]quinazolin-8-amine] | 9 | 31 | > 10000 | – |
| c1cc(Nc2ncc3c(n2)-c2c(cnn2C2CCCCC2)CC3)ncc1N1CCNCC1 [Compound P-35] | 74 | 252 | – | – |
| CCn1nc2c(c1C(C)C)-c1nc(Nc3ccc(N4CCNCC4)cn3)ncc1C(C)(C)C2 [Compound P-48] | 97 | 897 | – | – |
| Cc1nn(C2CCCC2)c2c1CCc1cnc(Nc3ccc(N4CCNCC4)cn3)nc1-2 [Compound P-43] | 9 | 46 | – | – |
